Like-named read-outs stand apart in the source and are kept apart here.
Assays:
IGROV-ET = assay: Inhibition of cells growth by colorimetric (SRB) assay, IGROV-ET
Method in brief: (§1)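 Human tumour cells in RPMI 1640 with 10% FBS were seeded at 5×10^3 cells/well, allowed to attach for 18 h, then exposed to samples at 10 to 10^−8 μg/ml for 48 h. Growth was measured by SRB staining after TCA fixation, with absorbance read at 490 nm in triplicate wells.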

DU-145 = assay: Inhibition of cells growth by colorimetric (SRB) assay, DU-145
Method in brief: as §1

LNCaP = assay: Inhibition of cells growth by colorimetric (SRB) assay, LNCaP
Method in brief: as §1

LoVo = assay: Inhibition of cells growth by colorimetric (SRB) assay, LoVo
Method in brief: as §1

SK-BR-3 = assay: Inhibition of cells growth by colorimetric (SRB) assay, SK-BR-3
Source text: (§2) The finality of these assays is to interrupt the growth of a “in vitro” tumor cell culture by means a continued exhibition of the cells to the sample to be testing.
(§3) This form of the assay employs 96 well cell culture microplates of 9 mm diameter (Faircloth, 1988; Mosmann, 1983). Most of the cell lines are obtained from American Type Culture Collection (ATCC) derived from different human cancer types.
(§4) Cells are maintained in RPMI 1640 10% FBS, supplemented with 0.1 g/l penicillin and 0.1 g/l streptomycin sulphate and then incubated at 37° C., 5% CO2 and 98% humidity. For the experiments, cells were harvested from subconfluent cultures using trypsin and resuspended in fresh medium before plating.
(§5) Cells are seeded in 96 well microtiter plates, at 5×10^3 cells per well in aliquots of 195 μl medium, and they are allowed to attach to the plate surface by growing in drug free medium for 18 hours. Afterward, samples are added in aliquots of 5 μl in a ranging from 10 to 10^−8 μg/ml, dissolved in DMSO/EtOH/PBS (0.5:0.5:99). After 48 hours exposure, the antitumor effect are measured by the SRB methodology: cells are fixed by adding 50 μl of cold 50% (wt/vol) trichloroacetic acid (TCA) and incubating for 60 minutes at 4° C. Plates are washed with deionized water and dried. One hundred μl of SRB solution (0.4% wt/vol in 1% acetic acid) is added to each microtiter well and incubated for 10 minutes at room temperature. Unbound SRB is removed by washing with 1% acetic acid. Plates are air dried and bound stain is solubilized with Tris buffer. Optical densities are read on a automated spectrophotometric plate reader at a single wavelength of 490 nm.
(§6) The values for mean +/−SD of data from triplicate wells are calculated. Some parameters for cellular responses can be calculated: GI=growth inhibition, TGI=total growth inhibition (cytostatic effect) and LC=cell killing (cytotoxic effect).

SK-OV-3 = assay: Inhibition of cells growth by colorimetric (SRB) assay, SK-OV-3
Method in brief: as §1

LoVo-Dox = assay: Inhibition of cells growth by colorimetric (SRB) assay, LoVo-Dox
Method in brief: as §1

PANC-1 = assay: Inhibition of cells growth by colorimetric (SRB) assay, PANC-1
Method in brief: as §1

A-549 = assay: Inhibition of cells growth by colorimetric (SRB) assay, A-549
Method in brief: as §1

HT-29 = assay: Inhibition of cells growth by colorimetric (SRB) assay, HT-29
Method in brief: as §1

K-562 = assay: Inhibition of cells growth by colorimetric (SRB) assay, K-562
Method in brief: as §1

IGROV-1 = assay: Inhibition of cells growth by colorimetric (SRB) assay, IGROV-1
Method in brief: as §1

SK-MEL-28 = assay: Inhibition of cells growth by colorimetric (SRB) assay, SK-MEL-28
Method in brief: as §1

HMEC1 = assay: Inhibition of cells growth by colorimetric (SRB) assay, HMEC1; conditions: SRB assay, 48 hours exposure
Source text: as §2, §3, §4, §5, §6

COc1ccc2nc3c(cc2c1)c(-c1ccnc(N)n1)c1ccnc(N)n13 [Compound 19b]
GI50 (IGROV-ET; Homo sapiens, 48 h, read-out: GI50 IGROV-ET, SRB assay, 48 hours exposure): 3.27 µM
CC50 (IGROV-ET; Homo sapiens, 48 h, read-out: LC50 IGROV-ET, SRB assay, 48 hours exposure): 20.4 µM
TGI IGROV-ET (IGROV-ET; SRB assay, 48 hours exposure): 8.17E−06
GI50 (DU-145; Homo sapiens, DU-145, 48 h, read-out: GI50 DU-145, SRB assay, 48 hours exposure): 5.79 µM
CC50 (DU-145; Homo sapiens, DU-145, 48 h, read-out: LC50 DU-145, SRB assay, 48 hours exposure): 28 µM
TGI DU-145 (DU-145; SRB assay, 48 hours exposure): 2.39E−05
GI50 (LNCaP; Homo sapiens, LNCaP, 48 h, read-out: GI50 LN-caP, SRB assay, 48 hours exposure): 2360 nM
CC50 (LNCaP; Homo sapiens, LNCaP, 48 h, read-out: LC50 LN-caP, SRB assay, 48 hours exposure): 27.6 µM
TGI LN-caP (LNCaP; SRB assay, 48 hours exposure): 8.59E−06
GI50 (LoVo; Homo sapiens, LoVo, 48 h, read-out: GI50 LOVO, SRB assay, 48 hours exposure): 3.25 µM
CC50 (LoVo; Homo sapiens, LoVo, 48 h, read-out: LC50 LOVO, SRB assay, 48 hours exposure): 28 µM
TGI LOVO (LoVo; SRB assay, 48 hours exposure): 1.97E−05
GI50 (SK-BR-3; Homo sapiens, SK-BR-3, 48 h, read-out: GI50 SK-BR-3, SRB assay, 48 hours exposure): 1890 nM
CC50 (SK-BR-3; Homo sapiens, SK-BR-3, 48 h, read-out: LC50 SK-BR-3, SRB assay, 48 hours exposure): 28 µM
TGI SK-BR-3 (SK-BR-3; SRB assay, 48 hours exposure): 8.23E−06
GI50 (SK-OV-3; Homo sapiens, SK-OV-3, 48 h, read-out: GI50 SKOV-3, SRB assay, 48 hours exposure): 8.28 µM
CC50 (SK-OV-3; Homo sapiens, SK-OV-3, 48 h, read-out: LC50 SKOV-3, SRB assay, 48 hours exposure): 28 µM
TGI SKOV-3 (SK-OV-3; SRB assay, 48 hours exposure): 1.89E−05
GI50 (LoVo-Dox; Homo sapiens, 48 h, read-out: GI50 LOVO-DOX, SRB assay, 48 hours exposure): 7.42 µM
CC50 (LoVo-Dox; Homo sapiens, 48 h, read-out: LC50 LOVO-DOX, SRB assay, 48 hours exposure): 28 µM
TGI LOVO-DOX (LoVo-Dox; SRB assay, 48 hours exposure): 2.10E−05
GI50 (PANC-1; Homo sapiens, PANC-1, 48 h, read-out: GI50 PANC-1, SRB assay, 48 hours exposure): 8.87 µM
CC50 (PANC-1; Homo sapiens, PANC-1, 48 h, read-out: LC50 PANC-1, SRB assay, 48 hours exposure): 28 µM
TGI PANC-1 (PANC-1; SRB assay, 48 hours exposure): 2.80E−05
GI50 (A-549; Homo sapiens, A549, 48 h, read-out: GI50 A-549, SRB assay, 48 hours exposure): 0.453 µM
CC50 (A-549; Homo sapiens, A549, 48 h, read-out: LC50 A-549, SRB assay, 48 hours exposure): 28 µM
TGI A-549 (A-549; SRB assay, 48 hours exposure): 2.80E−05
GI50 (HT-29; Homo sapiens, HT-29, 48 h, read-out: GI50 HT-29, SRB assay, 48 hours exposure): 15.2 µM
CC50 (HT-29; Homo sapiens, HT-29, 48 h, read-out: LC50 HT-29, SRB assay, 48 hours exposure): 28 µM
TGI HT-29 (HT-29; SRB assay, 48 hours exposure): 2.80E−05
GI50 (K-562; Homo sapiens, K562, 48 h, read-out: GI50 K-562, SRB assay, 48 hours exposure): 8.48 µM
CC50 (K-562; Homo sapiens, K562, 48 h, read-out: LC50 K-562, SRB assay, 48 hours exposure): 28 µM
TGI K-562 (K-562; SRB assay, 48 hours exposure): 1.59E−05
GI50 (IGROV-1; Homo sapiens, IGROV-1, 48 h, read-out: GI50 IGROV, SRB assay, 48 hours exposure): 4.11 µM
CC50 (IGROV-1; Homo sapiens, IGROV-1, 48 h, read-out: LC50 IGROV, SRB assay, 48 hours exposure): 19.4 µM
TGI IGROV (IGROV-1; SRB assay, 48 hours exposure): 8.93E−06
GI50 (SK-MEL-28; Homo sapiens, SK-MEL-28, 48 h, read-out: GI50 MEL-28, SRB assay, 48 hours exposure): 4.92 µM
CC50 (SK-MEL-28; Homo sapiens, SK-MEL-28, 48 h, read-out: LC50 MEL-28, SRB assay, 48 hours exposure): 28 µM
TGI MEL-28 (SK-MEL-28; SRB assay, 48 hours exposure): 1.65E−05

COc1cccc(-c2c3cccnc3n3c(N)nccc23)c1 [Compound 62]
A-549 TGI (A-549; SRB assay, 48 hours exposure): 3.44E−05
CC50 (A-549; read-out: A-549 LC50, SRB assay, 48 hours exposure): 34.4 µM
GI50 (A-549; read-out: GI50 A-549, SRB assay, 48 hours exposure): 34.4 µM
HT-29 TGI (HT-29; SRB assay, 48 hours exposure): 3.44E−05
GI50 (HT-29; read-out: HT-29 GI50, SRB assay, 48 hours exposure): 34.4 µM
CC50 (HT-29; read-out: HT-29 LC50, SRB assay, 48 hours exposure): 34.4 µM
TGI H-MEC-1 (HMEC1; in M (unit assumed)): 3.44E−05
GI50 (HMEC1; read-out: GI50 H-MEC-1): 34.4 µM
CC50 (HMEC1; read-out: LC50 H-MEC-1): 34.4 µM
